“Also recorded” adds a separate entry of the source. Read-outs that look alike come from different tables or passages of the source.
Experiments:
[1] = system: estrogen receptor (ER); settings: ref ToxCast, cited from earlier work
[2] = system: androgen receptor; design: method as in ToxCast database; settings: ref ToxCast database; cited from earlier work
[3] = molecular target: COX1(h) (Homo sapiens, UniProt P23219); assay: Pharmacology profiling: COX1; type: biochemical
[4] = system: HepG2 cells; assay: Whole-genome transcriptomics dose response (toxicogenomics); settings: analysis method 1; HepG2, 24 h
[5] = system: androgen receptor (AR); design: method as in ToxCast; settings: ref ToxCast, cited from earlier work
[6] = system: hPTCs; settings: human, 72 h
[7] = system: androgen receptor; design: method as in ToxCast database; settings: ref ToxCast database; cited from earlier work; remark: listed apart in the source
[8] = molecular target: acetylcholinesterase (h) (Homo sapiens, UniProt P22303); assay: Pharmacology profiling: acetylcholinesterase; type: biochemical
[9] = system: estrogen receptor; design: method as in ToxCast database; settings: ref ToxCast database; cited from earlier work
[10] = system: androgen receptor; design: method as in ToxCast database; settings: ref ToxCast database; cited from earlier work; remark: listed apart in the source
[11] = molecular target: T1, COX2(h) (Homo sapiens, UniProt P35354); assay: Pharmacology profiling: COX2; type: biochemical
T1 sequence (P35354 18-604): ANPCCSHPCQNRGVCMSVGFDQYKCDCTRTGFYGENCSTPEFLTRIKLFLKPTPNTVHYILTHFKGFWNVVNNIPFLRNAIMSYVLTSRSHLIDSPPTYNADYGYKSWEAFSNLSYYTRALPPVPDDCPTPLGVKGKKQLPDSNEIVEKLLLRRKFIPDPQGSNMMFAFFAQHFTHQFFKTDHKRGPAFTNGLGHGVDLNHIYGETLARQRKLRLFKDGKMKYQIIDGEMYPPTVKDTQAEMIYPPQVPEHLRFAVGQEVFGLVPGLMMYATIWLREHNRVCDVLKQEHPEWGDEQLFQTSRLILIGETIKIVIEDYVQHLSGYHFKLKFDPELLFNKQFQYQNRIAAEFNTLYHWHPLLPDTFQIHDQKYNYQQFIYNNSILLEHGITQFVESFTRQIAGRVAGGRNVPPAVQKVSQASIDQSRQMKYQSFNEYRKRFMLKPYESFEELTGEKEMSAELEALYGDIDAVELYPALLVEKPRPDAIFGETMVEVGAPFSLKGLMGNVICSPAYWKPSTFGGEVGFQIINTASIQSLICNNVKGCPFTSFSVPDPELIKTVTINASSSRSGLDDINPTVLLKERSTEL

[12] = in vitro; settings: human, plasma
[13] = system: thyroid pathway; design: method as in ToxCast database; settings: ref ToxCast database; cited from earlier work
[14] = Method: Figure 8 provides an overview of the tiered workflow and the related in silico and in vitro NAMs used to calculate the MoIE. […] Since this assessment is conducted using plasma concentrations rather than external doses, the comparison is an MoIE.
In this assessment, the total plasma concentrations were used, rather than unbound concentrations, because they are compared with nominal doses used in the in vitro assays (biokinetics in the toxicogenomics incubations were not measured).

[15] = molecular target: Human MRP4 (Homo sapiens, UniProt O15439); settings: not told
[16] = ref PubChem or the ECHA database; cited from earlier work
[17] = system: estrogen receptor; design: method as in ToxCast database; settings: ref ToxCast database; cited from earlier work; remark: listed apart in the source
[18] = system: panel of 83 pharmacological targets
Excerpt: The set of targets was extended to broaden the biological coverage.
Results showing an inhibition or stimulation higher than 50% are considered to represent significant effects (i.e. a “hit”).

[19] = system: hiPSCs differentiated into cardiomyocytes, hepatocytes, or neural rosettes; settings: human
[20] = molecular target: Human OAT3 (Homo sapiens, UniProt Q8TCC7)
[21] = system: Aromatase; design: method as in ToxCast database; settings: ref ToxCast database; cited from earlier work
[22] = system: estrogen receptor; design: method as in ToxCast database; settings: ref ToxCast database; cited from earlier work; remark: listed apart in the source
[23] = system: Thyroid (TR and TPO only); design: method as in ToxCast; settings: ref ToxCast, cited from earlier work
[24] = system: thyroid pathway; design: method as in ToxCast database; settings: ref ToxCast database; cited from earlier work; remark: listed apart in the source
[25] = in vitro; type: in vitro ADME
Method: […]. Samples were precipitated with an equal volume of acetonitrile containing internal standards (1 μM diazepam, 1 μM griseofulvin, 10 μM diclofenac) and then centrifuged (4800 x g, room temperature, 5 min) before analysis by UHPLC-MS/HRMS.
The amount of compound in the samples was expressed as percentage of remaining compound compared to time point zero (=100%). These percentages were plotted against the corresponding time points. In vitro intrinsic clearance (CLint) and half-life (t1/2) estimates were determined using the rate of precursor disappearance and following formula, based on the well-stirred liver model (Obach 1999):
t1/2 = half-life [min]; k = slope from the linear regression of log [test compound] versus time plot [1/min]
Where CLint = in vitro intrinsic clearance [μl/min/10^6 cells]; t1/2 = half-life [min]; k = slope of the linear regression of log [test compound] versus time plot [1/min]; V = ratio of incubation volume and cell number and fu = unbound fraction in the blood. […]

Sequence of COX1(h) (P23219 24-599): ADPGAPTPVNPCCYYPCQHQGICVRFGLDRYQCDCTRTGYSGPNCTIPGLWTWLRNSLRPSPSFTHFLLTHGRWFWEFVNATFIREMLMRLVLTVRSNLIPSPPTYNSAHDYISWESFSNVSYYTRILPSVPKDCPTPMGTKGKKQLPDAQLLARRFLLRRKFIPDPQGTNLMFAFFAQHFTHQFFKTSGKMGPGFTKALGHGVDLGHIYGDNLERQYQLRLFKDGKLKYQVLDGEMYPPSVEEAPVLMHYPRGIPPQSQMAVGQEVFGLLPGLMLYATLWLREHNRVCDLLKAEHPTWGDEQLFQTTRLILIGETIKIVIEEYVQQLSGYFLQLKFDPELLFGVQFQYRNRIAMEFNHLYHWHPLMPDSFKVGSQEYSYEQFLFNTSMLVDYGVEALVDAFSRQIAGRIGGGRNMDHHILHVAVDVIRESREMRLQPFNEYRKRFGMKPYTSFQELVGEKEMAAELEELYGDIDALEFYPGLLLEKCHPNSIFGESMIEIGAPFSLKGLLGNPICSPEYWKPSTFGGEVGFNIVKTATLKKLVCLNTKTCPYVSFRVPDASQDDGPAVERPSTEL
Sequence of acetylcholinesterase (h) (P22303 32-614): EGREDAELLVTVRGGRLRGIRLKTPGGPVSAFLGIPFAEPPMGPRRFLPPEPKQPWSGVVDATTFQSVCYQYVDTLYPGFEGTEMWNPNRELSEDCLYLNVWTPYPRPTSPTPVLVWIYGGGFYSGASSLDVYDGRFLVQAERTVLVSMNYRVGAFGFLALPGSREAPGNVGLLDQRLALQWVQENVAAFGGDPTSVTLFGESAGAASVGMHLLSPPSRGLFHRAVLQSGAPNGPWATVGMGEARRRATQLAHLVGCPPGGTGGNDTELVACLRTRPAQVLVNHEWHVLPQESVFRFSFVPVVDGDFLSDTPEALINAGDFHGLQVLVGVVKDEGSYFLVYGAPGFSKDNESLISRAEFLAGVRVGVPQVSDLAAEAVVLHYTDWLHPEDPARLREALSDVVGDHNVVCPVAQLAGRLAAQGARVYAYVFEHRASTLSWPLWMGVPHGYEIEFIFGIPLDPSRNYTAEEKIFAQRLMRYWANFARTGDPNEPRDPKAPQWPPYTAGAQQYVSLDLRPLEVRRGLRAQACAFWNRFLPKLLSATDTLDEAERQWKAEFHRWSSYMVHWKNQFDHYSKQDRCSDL
Sequence of Human MRP4 (O15439 whole entry): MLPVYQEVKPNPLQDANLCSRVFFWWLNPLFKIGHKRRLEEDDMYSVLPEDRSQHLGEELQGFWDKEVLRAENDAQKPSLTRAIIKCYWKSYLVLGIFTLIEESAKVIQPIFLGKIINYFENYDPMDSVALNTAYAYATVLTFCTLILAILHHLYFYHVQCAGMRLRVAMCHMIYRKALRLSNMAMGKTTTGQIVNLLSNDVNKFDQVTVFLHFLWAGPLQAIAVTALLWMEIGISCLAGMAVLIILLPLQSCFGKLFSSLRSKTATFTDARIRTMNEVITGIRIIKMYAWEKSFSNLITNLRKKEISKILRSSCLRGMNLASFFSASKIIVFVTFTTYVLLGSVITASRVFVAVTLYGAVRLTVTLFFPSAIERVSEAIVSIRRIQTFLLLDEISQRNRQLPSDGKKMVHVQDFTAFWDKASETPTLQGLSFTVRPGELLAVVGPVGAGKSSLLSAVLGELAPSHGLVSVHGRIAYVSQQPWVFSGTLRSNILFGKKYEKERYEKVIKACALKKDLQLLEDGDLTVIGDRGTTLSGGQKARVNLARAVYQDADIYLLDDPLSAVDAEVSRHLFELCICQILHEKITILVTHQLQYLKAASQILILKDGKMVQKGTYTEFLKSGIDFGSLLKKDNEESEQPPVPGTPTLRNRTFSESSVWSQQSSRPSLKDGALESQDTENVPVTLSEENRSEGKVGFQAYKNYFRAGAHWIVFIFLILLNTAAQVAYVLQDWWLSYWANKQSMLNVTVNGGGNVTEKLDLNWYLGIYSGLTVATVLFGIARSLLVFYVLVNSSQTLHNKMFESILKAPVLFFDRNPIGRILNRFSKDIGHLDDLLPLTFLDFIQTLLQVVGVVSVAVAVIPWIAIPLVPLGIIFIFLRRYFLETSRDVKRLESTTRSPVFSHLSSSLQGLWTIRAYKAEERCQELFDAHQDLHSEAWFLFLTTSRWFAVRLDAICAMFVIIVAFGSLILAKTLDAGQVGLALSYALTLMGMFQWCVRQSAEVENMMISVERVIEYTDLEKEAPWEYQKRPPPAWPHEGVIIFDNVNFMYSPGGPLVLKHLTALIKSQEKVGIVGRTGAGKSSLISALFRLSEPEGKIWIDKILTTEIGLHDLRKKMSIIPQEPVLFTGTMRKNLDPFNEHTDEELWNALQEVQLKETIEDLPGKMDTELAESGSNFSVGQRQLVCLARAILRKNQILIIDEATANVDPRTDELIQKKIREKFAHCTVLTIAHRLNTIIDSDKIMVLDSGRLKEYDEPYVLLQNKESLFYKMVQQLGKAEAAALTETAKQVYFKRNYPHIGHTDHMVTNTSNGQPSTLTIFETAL
Sequence of Human OAT3 (Q8TCC7 whole entry): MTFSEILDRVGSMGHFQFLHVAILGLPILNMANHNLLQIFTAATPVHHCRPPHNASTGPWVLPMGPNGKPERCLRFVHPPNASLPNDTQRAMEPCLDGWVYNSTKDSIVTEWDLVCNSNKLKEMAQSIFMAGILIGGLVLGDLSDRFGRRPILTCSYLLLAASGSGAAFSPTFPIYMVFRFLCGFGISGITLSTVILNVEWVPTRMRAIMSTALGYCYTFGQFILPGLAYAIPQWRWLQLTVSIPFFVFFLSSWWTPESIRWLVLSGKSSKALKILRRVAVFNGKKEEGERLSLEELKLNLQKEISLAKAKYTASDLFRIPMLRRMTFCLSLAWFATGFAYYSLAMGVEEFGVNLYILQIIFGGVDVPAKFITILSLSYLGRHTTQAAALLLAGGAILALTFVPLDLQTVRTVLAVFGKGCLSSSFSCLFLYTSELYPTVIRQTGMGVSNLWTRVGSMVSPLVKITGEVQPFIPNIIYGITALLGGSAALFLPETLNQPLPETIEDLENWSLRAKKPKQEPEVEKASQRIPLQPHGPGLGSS

Q: Which “Estrogen: Experimental Data (call)” value ([1]; Tier 0) does the source give for `O=C(O)c1ccccc1O` [SA, salicylic acid] here?
A: Negative

Q: And the “Estrogen: assays active / assays” value [1]?
A: 0/18 active

Q: What about the “Androgen pathway Dimerisation: Call” value [2] of the same molecule?
A: Negative

Q: What about the “Inhibition of COX1, screening” value ([3]; 10 µM) of the same molecule?
A: did not inhibit

Q: And the “Inhibition of COX1, follow-up” value ([3]; up to 10 mM)?
A: did not inhibit; also recorded: no effect

Q: And the “PoD (BMDL, lowest pathway)” value [4]?
A: 213 µM

Q: What about the “Androgen: Experimental Data (call)” value ([5]; Tier 0) of the same molecule?
A: Negative

Q: What about the “Androgen: assays active / assays” value [5] of the same molecule?
A: 1/15 active (noise)

Q: What about the PoD [6] of the same molecule?
A: >300 µM

Q: And the “Androgen pathway Reporter protein Agonist: Call” value [7]?
A: Negative

Q: And the inhibition at 10 µM ([8]; 10 µM SA, two technical replicates)?
A: 25.4%

Q: And the “Inhibition of acetylcholinesterase, follow-up” value ([8]; 10 μM to 1 mM SA)?
A: ≤ 5%

Q: What about the “Estrogen pathway Dimerisation: Call” value [9] of the same molecule?
A: Negative

Q: What about the “Androgen pathway mRNA induction: Call” value [10] of the same molecule?
A: Negative

Q: What about the IC50 [11] of the same molecule?
A: > 10 mM

Q: And the “Inhibition of COX2, screening” value ([11]; 10 µM)?
A: did not inhibit

Q: What about the inhibition at 10000 µM ([11]; 10 mM) of the same molecule?
A: 29%

Q: And the fraction unbound [12]?
A: 0.029 to 0.18

Q: And the “Thyroid pathway mRNA induction: Call” value [13]?
A: Negative

Q: And the MoIE ([14]; PoD method 1 (213 µM) / CI95 Cmax 0.630 µM)?
A: 338

Q: And the MoIE ([14]; PoD method 1 (213 µM) / mean Cmax 0.273 µM)?
A: 780

Q: And the MoIE ([14]; PoD method 2 ([…]) / CI95 Cmax 0.630 µM)?
A: 16

Q: What about the MoIE ([14]; PoD method 2 ([…]) / mean Cmax 0.273 µM) of the same molecule?
A: 38

Q: And the “Substrate of MRP4 (efflux)” value [15]?
A: not a substrate

Q: And the Vapor pressure [16]?
A: 0.0208 Pa

Q: And the “Estrogen pathway Reporter protein Agonist: Call” value [17]?
A: Negative

Q: And the PoD [18]?
A: ≥10,000 µM

Q: And the “Effect on panel targets” value ([18]; up to millimolar concentrations)?
A: none of the targets tested were significantly impacted

Q: What about the PoD [19] of the same molecule?
A: 500 µM

Q: What about the “Substrate of OAT3 (uptake)” value [20] of the same molecule?
A: borderline substrate

Q: What about the “Steroidogenesis Aromatase: Call” value [21] of the same molecule?
A: Negative

Q: And the “Estrogen pathway mRNA induction: Call” value [22]?
A: Negative

Q: And the “Thyroid (TR and TPO only): Experimental Data (call)” value ([23]; Tier 0)?
A: Negative

Q: What about the “Thyroid (TR and TPO only): assays active / assays” value [23] of the same molecule?
A: 0/11 active

Q: And the “Thyroid pathway Reporter protein Antagonist: Call” value [24]?
A: Negative

Q: What about the “Further metabolism in PHH” value [25] of the same molecule?
A: not metabolized further

Q: And the half-life at 20 µM ([25]; both sexes, human, hepatocytes, Half-life in PHH)?
A: > 15.8 h

Q: What about the hepatocyte CLint at 20 µM ([25]; both sexes, human, hepatocytes, In vitro intrinsic clearance (CLint, in vitro)) of the same molecule?
A: ~0.9 µL/min/1e6 cells

Q: What about the “Further metabolism in PHH” value ([25]; both, human, 240 min, 20 µM) of the same molecule?
A: not further metabolized

From paper PMC10955127 (Frontiers in Pharmacology, 2024)
